Results on three molecules are retold here after patent US20250376484A1, “PRMT5 INHIBITORS AND USES THEREOF” (Gilead Sciences, Inc., priority 2024, published 2025).

The test system of series [1] is HCT116 MTAP-deleted cell lines. In words: Cell viability assay (CellTitre-Glo), HCT116 MTAP-deleted. Type of series: cell-based. The note with it: for CC50: Homo sapiens, HCT-116, 168 h, HCT116 MTAP-deleted cells, 7 days of treatment, CTG luminescence, read-out: MTAP^del HCT116 CC50; for Selectivity: WT HCT116 CC50 versus MTAP^del HCT116 CC50. Here is the method:
(§1) Control compounds were analyzed in parallel each time for quality control.
(§2) In Brief, on Day-1, a serial dilution of stock compounds in DMSO was performed using BioMek liquid handlers and dispensed using Echo acoustic dispenser into 384 well plates. Both tool compounds and sample compounds were spotted in the same plate for a dose response of PRMT5 inhibitors. Compound plates were stored as frozen until the cells were ready for seeding.
(§3) On Day 0, 100 HCT WT or HCT116 MTAP-deleted cells were seeded in compound-containing 384 well plates (50 μl per well) in RPMI 1640 media supplemented with 10% heat inactivated fetal bovine serum, Glutamax and penicillin streptomycin using EL460 liquid dispenser 5 μl cassette (BioTek, part no. 7170011). After equilibrating the plate in room temperature, the cells were incubated for 7 days inside the sealed incubator set at 37° C. with […] and 5% CO2.
(§4) On Day 7, the viability of cells was measured using a CTG assay kit (CellTitre-Glo; Promega cat no. G7573). Shortly, 40 μl per well of luminescent cell viability assay reagent were dispensed using EL460 liquid dispenser 5 μl cassette. CTG luminescence signal was measured using an EnVision plate reader (PerkinElmer) in accordance with manufacturer's instruction. The CC50 values for each compound after 7 days of treatment were calculated using 4 parameter non-linear logistical curve fit.

Series [2] can be described thus: Cell viability assay (CellTitre-Glo), HCT116 WT. Type of series: cell-based. The settings on record: human; HCT116 WT cells, 7 days of treatment, CTG luminescence. As for the experimental part: as §1, §2, §3, §4

For `[2H]C([2H])([2H])n1ncc2c(NC(=O)C(=O)N3CCC[C@@H]4Oc5cc(C(F)(F)F)cc(F)c5[C@@H]43)cnc(N)c21` [Example Cb-1, N-(7-amino-1-(methyl-d3)-1H-pyrazolo[3,4-c]pyridin-4-yl)-2-((4aS,9bS)-9-fluoro-7-(trifluoromethyl)-3,4,4a,9b-tetrahydrobenzofuro[3,2-b]pyridin-1(2H)-yl)-2-oxoacetamide], in series [1], the CC50 – broadly, the concentration giving 50% cytotoxicity – stood at 12 nM and the Selectivity was found to be 99. This molecule also gave a CC50 at 7 days in series [2] of 1240 nM.
For `Nc1ncc(NC(=O)C(=O)N2CCC[C@@H]3Oc4cc(C(F)(F)F)ccc4[C@@H]32)c2c1COC2` [Example Cc-1, N-(4-amino-1,3-dihydrofuro[3,4-c]pyridin-7-yl)-2-oxo-2-((4aS,9bS)-7-(trifluoromethyl)-3,4,4a,9b-tetrahydrobenzofuro[3,2-b]pyridin-1(2H)-yl)acetamide] the same measures were 50 nM, 38 and 1940 nM.
For `Nc1ncc(NC(=O)C(=O)N2CCC[C@@H]3Oc4cc(C(F)(F)F)cc(F)c4[C@@H]32)c2c1COC2` [Example Cc-2, N-(4-amino-1,3-dihydrofuro[3,4-c]pyridin-7-yl)-2-((4aS,9bS)-9-fluoro-7-(trifluoromethyl)-3,4,4a,9b-tetrahydrobenzofuro[3,2-b]pyridin-1(2H)-yl)-2-oxoacetamide], in that order: 51 nM, 37 and 1910 nM.
